Experiments:
[1] = molecular target: T1, human CYP11B1 (Homo sapiens, UniProt P15538); experiment: G-402 cellular enzyme assay, human CYP11B1 (cortisol release, HTRF); format: cell-based; conditions: stable G-402 cells expressing human CYP11B1; 1 μM Deoxycortisol; 16 h
T1 construct: The expression plasmids contains the ORF for either human/cyno CYP11B1 or CYP11B2; expressed in transfected cells
T1 sequence (P15538 25-503): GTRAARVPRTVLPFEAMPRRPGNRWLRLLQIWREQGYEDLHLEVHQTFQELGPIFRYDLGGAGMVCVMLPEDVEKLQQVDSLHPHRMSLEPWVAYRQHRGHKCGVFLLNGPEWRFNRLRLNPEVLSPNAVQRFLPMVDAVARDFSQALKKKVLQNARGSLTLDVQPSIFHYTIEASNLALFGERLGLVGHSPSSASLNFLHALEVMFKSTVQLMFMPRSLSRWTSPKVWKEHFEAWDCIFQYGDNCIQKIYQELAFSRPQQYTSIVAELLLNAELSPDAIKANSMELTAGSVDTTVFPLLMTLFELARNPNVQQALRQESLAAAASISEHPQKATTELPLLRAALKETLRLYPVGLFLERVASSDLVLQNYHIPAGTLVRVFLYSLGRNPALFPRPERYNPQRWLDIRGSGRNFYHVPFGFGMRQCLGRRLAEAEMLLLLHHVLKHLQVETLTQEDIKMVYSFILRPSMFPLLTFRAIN
From the text: Herein we identified the use of the G-402 cell line as a host cell to ectopically express (transiently or stably) enzymes of the CYP11 family. Specifically we developed stable G-402 cells expressing ectopically human CYP11B1, human CYP11B2, human CYP11A1, cynmolgus CYP11B1 or cynomolgus CYP11B2 enzyme activity. Importantly the identified cell line G-402 expresses co-factors (adrenodoxin and adrenodoxin reductase) important for the activity of the CYP11 family and no relevant enzyme activity of the CYP11 family (in comparison to H295R cells) was detected in these cells. Therefore the G-402 cell line is uniquely suited as a host cell for the ectopic expression of enzymes from the CYP11 family.
G-402 cells can be obtained from ATCC (CRL-1440) and were originally derived from a renal leiomyoblastoma.
The expression plasmids contains the ORF for either human/cyno CYP11B1 or CYP11B2 under the control of a suitable promoter (CMV-promoter) and a suitable resistance marker (neomycin). Using standard techniques the expression plasmid is transfected into G-402 cells and these cells are then selected for expressing the given resistance markers. Individual cell-clones are then selected and assessed for displaying the desired enzymatic activity using 11-Deoxycorticosterone (Cyp11B2) or 11-Deoxycortisol (Cyp11B1) as a substrate.
G-402 cells expressing CYP11 constructs were established as described above and maintained in McCoy's 5a Medium Modified, ATCC Catalog No. 30-2007 containing 10% FCS and 400 μg/ml G418 (Geneticin) at 37° C. under an atmosphere of 5% CO2/95% air. Cellular enzyme assays were performed in DMEM/F12 medium containing 2.5% charcoal treated FCS and appropriate concentration of substrate (0.3-10 uM 11-Deoxycorticosterone, 11-Deoxycortisol or Corticosterone). For assaying enzymatic activity, cells were plated onto 96 well plates and incubated for 16 h. An aliquot of the supernatant is then transferred and analyzed for the concentration of the expected product (Aldosterone for CYP11B2; Cortisol for CYP11B1). The concentrations of these steroids can be determined using HTRF assays from CisBio analyzing either Aldosterone or Cortisol.
Inhibition of the release of produced steroids can be used as a measure of the respective enzyme inhibition by test compounds added during the cellular enzyme assay. The dose dependent inhibition of enzymatic activity by a compound is calculated by means of plotting added inhibitor concentrations (x-axes) vs. measured steroid/product level (y-axes). The inhibition is then calculated by fitting the following 4-parameter sigmoidal function (Morgan-Mercer-Flodin (MMF) model) to the raw data points using the least squares method:
[formula] wherein, A is the maximum y value, B is the EC50 factor determined using XLFit, C is the minimum y value and D is the slope value.
EC50 values for compounds claimed herein were tested with the G402-based assay system described. Cyp11B2 enzyme activity was tested in presence of 1 μM Deoxycorticosterone and variable amounts of inhibitors; Cyp11B1 enzyme activity was tested in presence of 1 μM Deoxycortisol and variable amounts of inhibitors.

[2] = rat, cited from earlier work; for plasma aldosterone: FAD286 following 4 weeks of treatment, spironolactone at 4 and 8 weeks
[3] = molecular target: CYP11B2 (Homo sapiens, UniProt P19099); conditions: patients with primary aldosteronism, cited from earlier work
CYP11B2, sequence (P19099 25-503): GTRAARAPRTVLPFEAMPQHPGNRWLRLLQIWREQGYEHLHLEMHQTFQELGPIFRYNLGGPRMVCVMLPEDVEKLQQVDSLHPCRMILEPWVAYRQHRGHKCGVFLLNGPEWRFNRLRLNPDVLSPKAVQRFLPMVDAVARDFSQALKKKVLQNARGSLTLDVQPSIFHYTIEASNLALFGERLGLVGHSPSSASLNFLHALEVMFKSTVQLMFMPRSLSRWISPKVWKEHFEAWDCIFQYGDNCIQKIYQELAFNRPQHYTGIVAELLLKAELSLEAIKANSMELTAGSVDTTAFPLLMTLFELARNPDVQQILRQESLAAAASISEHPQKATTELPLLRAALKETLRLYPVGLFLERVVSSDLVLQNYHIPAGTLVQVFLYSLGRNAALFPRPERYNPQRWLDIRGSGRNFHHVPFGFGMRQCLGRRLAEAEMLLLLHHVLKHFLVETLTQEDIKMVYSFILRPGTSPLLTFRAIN

CCS(=O)(=O)N1CC2(CN(Cc3cn[nH]c3-c3ccc4c(c3)CCC(=O)N4C)C2)C1 [Example 56, 6-[4-[(2-Ethylsulfonyl-2,6-diazaspiro[3.3]heptan-6-yl)methyl]-1H-pyrazol-3-yl]-1-methyl-3,4-dihydroquinolin-2-one]
EC50 [1]: > 30 nM

CN1C(=O)CCc2cc(-c3[nH]ncc3CN3CC4(C3)CN(C(=O)c3cnn(C)c3)C4)cc(Cl)c21 [Example 60, 8-Chloro-1-methyl-6-[4-[[2-(1-methylpyrazole-4-carbonyl)-2,6-diazaspiro[3.3]heptan-6-yl]methyl]-1H-pyrazol-3-yl]-3,4-dihydroquinolin-2-one]
EC50 [1]: > 30 nM

CC(=O)N1CCN(Cc2c[nH]nc2-c2ccc3c(c2)CCC(=O)N3C)C[C@H]1C [Example 49, (−)-6-[4-[[(3R)-4-Acetyl-3-methyl-piperazin-1-yl]methyl]-1H-pyrazol-3-yl]-1-methyl-3,4-dihydroquinolin-2-one]
EC50 [1]: > 30 nM

CN1C(=O)CCc2c1ccc(-c1n[nH]cc1CN1CC3(C1)CN(C(=O)c1cnn(C)c1)C3)c2Cl [Example 53, 5-Chloro-1-methyl-6-[4-[[2-(1-methylpyrazole-4-carbonyl)-2,6-diazaspiro[3.3]heptan-6-yl]methyl]-1H-pyrazol-3-yl]-3,4-dihydroquinolin-2-one]
EC50 [1]: > 30 nM

CC(=O)N1CC2(CN(Cc3cn[nH]c3-c3ccc4c(c3Cl)CCC(=O)N4C)C2)C1 [Example 59, 6-[4-[(2-Acetyl-2,6-diazaspiro[3.3]heptan-6-yl)methyl]-1H-pyrazol-3-yl]-5-chloro-1-methyl-3,4-dihydroquinolin-2-one]
EC50 [1]: > 30 nM

CC(=O)S[C@@H]1CC2=CC(=O)CC[C@]2(C)[C@H]2CC[C@@]3(C)[C@@H](CC[C@@]34CCC(=O)O4)[C@H]12 [spironolactone]
plasma aldosterone [2]: increased | angiotensin II and salt-stimulated PAI-1 mRNA expression in the aorta and the heart [2]: enhanced

N#Cc1ccc(C2CCCc3cncn32)cc1 (centres unmarked) [FAD286]
plasma aldosterone [2]: reduced

CCS(=O)(=O)N1CC2(CN(Cc3c[nH]nc3-c3ccc4c(c3Cl)CCC(=O)N4C)C2)C1 [Example 54, 5-Chloro-6-[4-[(2-ethylsulfonyl-2,6-diazaspiro[3.3]heptan-6-yl)methyl]-1H-pyrazol-3-yl]-1-methyl-3,4-dihydroquinolin-2-one]
EC50 [1]: > 30 nM

CCS(=O)(=O)N1CC2(CN(Cc3cn[nH]c3-c3cc(Cl)c4c(c3)CCC(=O)N4C)C2)C1 [Example 62, 8-Chloro-6-[4-[(2-ethylsulfonyl-2,6-diazaspiro[3.3]heptan-6-yl)methyl]-1H-pyrazol-3-yl]-1-methyl-3,4-dihydroquinolin-2-one]
EC50 [1]: > 30 nM

CN1C(=O)CCc2cc(-c3[nH]ncc3CN3CC4(C3)CN(C(=O)c3ncccc3Cl)C4)ccc21 [Example 64, 6-[4-[[2-(3-Chloropyridine-2-carbonyl)-2,6-diazaspiro[3.3]heptan-6-yl]methyl]-1H-pyrazol-3-yl]-1-methyl-3,4-dihydroquinolin-2-one]
EC50 [1]: > 30 nM

CN1C(=O)CCc2cc(-c3[nH]ncc3CN3CC4(C3)CN(C(=O)c3nccn3C)C4)ccc21 [Example 63, 1-Methyl-6-[4-[[2-(1-methylimidazole-2-carbonyl)-2,6-diazaspiro[3.3]heptan-6-yl]methyl]-1H-pyrazol-3-yl]-3,4-dihydroquinolin-2-one]
EC50 [1]: > 30 nM

N#Cc1ccc([C@H]2CCc3cncn32)c(F)c1 [LCI699]
blood pressure [3]: mildly decreased | hypokalemia [3]: corrected | selectivity (effects on the glucocorticoid axis) [3]: poor selectivity | circulating aldosterone levels ([3]; oral): significantly lower

CN1C(=O)CCc2cc(-c3n[nH]cc3CN3CCN(C(=O)c4cnn(C)c4)CC3)cc(Cl)c21 [Example 44, 8-Chloro-1-methyl-6-[4-[[4-(1-methylpyrazole-4-carbonyl)piperazin-1-yl]methyl]-1H-pyrazol-3-yl]-3,4-dihydroquinolin-2-one]
EC50 [1]: > 30 nM

— patent publication US9796726B2, “Dihydroquinoline pyrazolyl compounds” (Hoffmann-La Roche Inc., priority 2014, dated 2017)
